In patent US20250290142A1, “DETECTING OXIDATIVE STRESS IN CELL(S) USING EPIGENETIC MEANS” (Evonik Operations GmbH, priority 2022, published 2025):

System: T-Skin models (reconstructed human skin)
Settings: maintained 24 hrs
Description: T-Skin models were obtained from Episkin SA, France which is composed of reconstructed human skin. Each skin model consists of a dermal equivalent overlaid by a stratified, well-differentiated epidermis derived from normal human keratinocytes. Upon receiving the skin models, it was recovered by incubating in T-Skin culture medium overnight at 37° C. in a 5% CO2 incubator.
The genomic DNA (500 ng) from tissue samples were subjected to bisulfite conversion using the EZ DNA Methylation-Gold™ Kit (Zymo Research). The methylation levels were quantified using Infinium MethylationEPIC v2.0 Kit (Illumina) which can analyze over 850,000 methylation sites quantitatively across the genome at single-nucleotide resolution.
Quality check on samples was performed to keep probes that have a detection P-value <0.01 in one or more samples or have a mean detection P-value <0.05 in all samples. […]
Prior to differential methylation analysis, the probes with non-specific binding, cross reactive probes, probes affected by common SNPs, and probes annotated to the X, Y chromosomes were also filtered out. Beta-value and M-value of normalized and filtered samples were calculated using getBeta and getM function respectively, the samples were then subjected to further downstream analysis. […]

Structure (SMILES): OO [H2O2, Hydrogen peroxide]
- methylation status of probes vs cells without OS (FIG. 4A) (high H2O2 (200 μM) for 2 hrs): large number of probes that are hypomethylated
- methylation status of probes vs cells without OS (FIG. 3A) (low H2O2 (100 μM) for 2 hrs): large number of probes that are hypomethylated
